In one assay the test system is PKC. In words: PKC phosphorylation in PC12 cell lysates, Western blot with p-PKC (pan) antibody. As to conditions: PC12, pre-treatment 2.5 μM. It counts as cell-based, rat. On the procedure:
(iv) Immunoblot Analyses. For Western blot analyses, attached cells were washed once in cold PBS and then lysed in 1× nonreducing Laemmli buffer followed by boiling for 3-5 min. Protein content was determined using the Bradford method. Equal amounts of protein were separated by SDS-polyacrylamide gel electrophoresis and blotted onto polyvinylidene difluoride (PVDF) membranes (Millipore). Membranes were treated with blocking buffer (5% dry milk in PBS or 5% dry milk, 0.05% Tween 20 (Sigma) in TBS). Primary antibodies were diluted in PBS or in TBS containing 5% BSA, 0.05% Tween 20 and incubated with membranes for 20 h at 4° C., followed by incubation (1 h at room temperature) in dilutions of horseradish peroxidase (HRP)-conjugated secondary antibodies in the same buffers. Following antibody incubations, membranes were washed in 0.5% Tween 20 in PBS or TBS. Detection was achieved using ECL™ Western Blotting Detection Reagent (Amersham, Pharmacia, Little Chalfort Buckinghamshire, UK). Quantification of results was accomplished by measuring the optical density of the labeled bands from the autoradiograms by scanning laser densitometry using the computerized imaging program Bio-ID (Imager, Bio1D software; Vilber Lourmat, Marne La Vallee, France). The values were normalized to β-actin intensity levels.
Since activation of PKC has been shown previously to modulate cell viability, resulting in protection of neuronal cells, it was of interest to investigate the effects of rasagiline on PKC activation. In one experiment, PC12 cells were untreated or treated with various concentrations of rasagiline (0.1, 1 and 10 μM) for 1 hour. […] Phosphorylation of PKC was analyzed in cell lysates by Western blotting and detected with p-PKC (pan) antibody.
The effect of propargylamine on PKC phosphorylation/activation was investigated as described in Example 2 above.
(In general: Immunoblotting shows a protein as a band on a membrane.)

The subject of a further assay is MAPK. Kind of assay: MAPK activation (phospho-p44/42 MAPK immunoblot) in PC12 cells. Conditions: PC12, preincubation 2.5 μM, rasagiline 10 μM 0.5 h. It counts as cell-based, rat. On the procedure: (viii) Extracellular signal-regulated kinase (ERK) activity. The kinase activity of the ERKs was measured using the MAPK assay kit (Cell Signaling Technology) according to the manufacturer's protocol. In brief, for kinase activity assays, PC12 cells were grown in 6-well plates (5×10^5 cells/well). Eighteen to twenty-four hours before experiments, the medium was replaced with DMEM with 0.5% FCS and treated as described in the figures. Experimental treatments were performed in 1 ml medium containing 0.5% FCS, with the vehicle or test drugs and/or inhibitors at 37° C., as described in the figures. After treatment, reactions were stopped by placing cells on ice and aspirating the medium. Cells were harvested in 50 mM Tris-HCl, pH 8.0, 150 mM NaCl, 5 mM EDTA, 1 mM DTT, 1% Triton X-100, and protease- and phosphatase-inhibitor cocktails. Protein concentration was determined by the Bradford method. As described previously (Yogev-Falach et al., 2002), each cell lysate, containing 30 μg protein, was separated on 4-12% SDS-polyacrylamide electrophoresis gels, immunoblotted, and identified using phospho-p44/42 MAPK (Thr202/Tyr204) antibody or p44/42 MAPK antibody. Data are representative of three to six independent experiments.
To study the effect of rasagiline on MAPK activation, PC12 cells were treated for 0.5 h with increasing concentrations of rasagiline (0.1, 1 and 10 μM), and quantification of the phospho-MAPK blots were normalized using the total MAPK blots, or PC12 cells were preincubated for 15 min with vehicle alone, or with PD98059 (30 μM) or GF109203X (2.5 μM) and then incubated without or with rasagiline (10 μM) for 0.5 h. Aliquots of cell lysates were then subjected to immunoblot analysis and probed with anti-phospho-MAPK (top blots) and anti-MAPK (bottom blots).
For the effect of propargylamine on MAPK activation, PC12 cells were treated for 0.5 h with increasing concentrations of propargylamine (0.1, 1 and 10 μM). Aliquots of cell lysates were then subjected to immunoblot analysis and probed with anti-phospho-MAPK and anti-MAP kinase. Quantification of the phospho-MAPK were normalized using the total MAPK blots.

Another assay deals with caspase-3, BAD. In words: Serum free-induced caspase-3 cleavage and BAD levels (rasagiline, data not shown). It counts as cell-based.
In assay [1] the test system is PC12 cells. Kind of assay: Cell death under serum deprivation (apoptotic cell death detection ELISA), PC12. It counts as cell-based, rat. Conditions: PC12, 24 h serum deprivation, significant at 1 and 10 μM. (In an ELISA, binding on a coated surface is turned into a signal by an enzyme label.)
Method: Two different neuronal cell lines were used: the rat PC12 and the human neuroblastoma SH-SY5Y cells.
PC12 cells, originated from rat pheochromocytoma, were grown to confluence in T75 flasks containing DMEM (1000 mg/l glucose) and supplemented with 5% FCS, 10% horse serum, and a mixture of 1% of penicillin/streptomycin/nystatin.
Cell cultures were incubated at 37° C. in a humid 5% CO2-95% air environment. For cell viability assays, cells were treated with various drugs in serum free media containing 0.1% BSA.
In order to test cell viability, PC12 cells and SH-SY5Y neuroblastoma cels were incubated under serum deprivation and were untreated or treated with rasagiline (0.1. 1 or 10 μM) for 24 hours.
Another assay deals with sAPPα. Kind of assay: sAPPα release into medium of SH-SY5Y neuroblastoma cells. It counts as cell-based, human. As to conditions: 1 μM, 3 h, SH-SY5Y conditioned media, mean ± SE of three experiments. As for the experimental part:
For the experiments, cells were seeded (2×10^6) onto 100-mm plates (for SH-SY5Y cells) or T75 flasks (for PC12 cells) in culture medium supplemented with full serum for 48 h. The cells were replaced with fresh medium containing 0.5% FCS for an additional 24 h (subconfluent culture), and then the experiments were performed in fresh medium containing 0.5% FCS for the indicated time periods at 37° C. After incubation with various drugs, the conditioned media were collected, centrifuged at 3500 g (10 min, 4° C.) to remove cell debris, and the cleared supernatants were concentrated 10-fold by lyophilization.
(vii) Determination of sAPP. Protein concentrations of cell lysates were assayed using Bradford reagent (Sigma Chemical). Equal amounts of volumes of conditioned medium, standardized to lysate protein, were subjected to […], using either the MAbs 22C11 or 6E10 in 50 mM Tris-HCl, pH 7.4, 150 mM NaCl, containing 0.05% Tween 20 and 1% BSA. Immunoreactivity was detected using anti-mouse IgG-conjugated with HRP and an enhanced chemiluminescence method (Amersham, Pharmacia Biotech, UK). Blots were developed for different times to span a linear range of response, and the relative intensity of immunoreactive bands on the exposed films was quantified by computer-assisted densitometry program (Quantity One, Bio-Rad, Hercules, Calif., USA).
It was of interest to determine whether rasagiline and other propargylamine-containing drugs also regulate APP processing. For this purpose, SH-SY5Y neuroblastoma cells were incubated for 3 h without or with 1 μM of various drugs (TV3326 and its S-isomer TV3279, rasagiline and its S-isomer TVP1022, selegiline, aminoindan), and sAPPα was measured in the media as described in Materials and Methods.
We further characterized, in detail, the effect of rasagiline on APP processing and the signaling pathways that are involved. Thus, SH-SY5Y neuroblastoma cells were incubated for 3 h without or with increasing concentrations of rasagiline (0.1, 1 and 10 μM), and sAPPα was measured in the media as described in Materials and Methods.
For the sAPPα release, SH-SY5Y neuroblastoma cells or PC12 cells were incubated for 3 h without or with increasing concentrations of propargylamine (0.1, 1 and 10 μM), and sAPPα was measured in the media as described in Materials and Methods.

Assay [2] has as its system PC12 cells. As to conditions: PC12, Aβ1-42 10 μM 24 h.
The next assay relates to MAO. Conditions: Youdim et al., 2001b; cited from earlier work.

Molecules are shown by their SMILES. Marks after values point to notes of the source that are not given here.

Here are results for 2 compounds from patent US20050191348A1 (priority 2004, published 2005).

For the compound `CN(C)CCCn1cc(C2=C(c3c[nH]c4ccccc34)C(=O)NC2=O)c2ccccc21` [GF109203X], in the assay on PKC (propargylamine 1 μM 1 h), the “effect on propargylamine-induced PKC phosphorylation” value is “blocked the effect of propargylamine on PKC phosphorylation”. The “effect on rasagiline-induced PKC phosphorylation” value with PKC (rasagiline 1 μM 1 h) is “significantly reduced rasagiline-induced PKC phosphorylation”. The “effect on rasagiline-induced MAPK activation” value in the assay with MAPK is “abolished the effect of rasagiline on MAPK activation”. For the same compound, the “effect on rasagiline-induced decrease of BAD” value with caspase-3, BAD was “blocked”. For the same compound, in the assay on caspase-3, BAD (data not shown), the “effect on rasagiline suppression of caspase-3 cleavage” value was “reversed”.
As for `C#CCN[C@@H]1CCc2ccccc21` [TVP1022], the “cell death induced by serum deprivation” value in the assay with PC12 cells [1] is listed as “protected serum deprived PC12 cells from apoptosis”. For the same compound, the “sAPPα secretion (fold/basal)” value with sAPPα is 2.43 ± 0.27^c fold/basal. Further, the “protection against Aβ1-42 neurotoxicity” value in the assay with PC12 cells [2] is on record as “protected PC12 cells from Aβ-evoked apoptosis”. In the assay on MAO, the “fold weaker as an inhibitor of MAO than rasagiline” value is “at least 1000 fold”.
